These are literature values, as cited in patent US11503831B2, “Arthropoda repellent composition” (SanderStrothmann GmbH, priority 2019, dated 2022).

The conditions of the data set: in vivo.

With `CCN(CC)C(=O)c1cccc(C)c1` [N,N-diethyl toluamide, N,N′-diethyl toluamide], the “Share of topically applied dose absorbed by the skin” value was “approximately 50%” and the “Time to peak plasma levels” value was 1 h.
